{"source": "patent EP0993306B1", "about": "“PERFLUOROALKYLATED OLIGOMER COMPOUNDS, PROCESS FOR PREPARING THE SAME AND THEIR USE IN NMR DIAGNOSIS” (SCHERING AKTIENGESELLSCHAFT, priority 1997, dated 1999)", "test": "T1 relaxivity in human plasma (Minispec pc 20)", "format": "physicochemical", "settings": "0.47 T, 20 MHz, 37 °C, Humanplasma; normalised to one metal atom"}
{"substance": "1,4,7-Tris(N-3,3,6-tris(carboxylatomethyl)-6-[N-3-aza-2,5-dioxo-pentan-1,5-diyl]-3,6,9-triazaundecan-1,11-disäure, Gd-Komplex, Mononatriumsalz}-10-2H,2H,4H,4H,5H,5H-3-oxa-perfluor-tridecanoyl)-1,4,7,10-tetraazacyclododecan [Beispiel 8 b)]", "values": [{"measurement": "R^1 (T^1-Relaxivity)", "result": "20,6 L/mmol * sec"}]}
{"substance": "1,4,7-Tris{1,4,7-tris-(N-carboxylatomethyl)-10-[N-(4,7-diaza-3,6,9-trioxo)-nonan-2,9-diyl]-1,4,7,10-tetraazacyclododecan, Gd-Komplex-10-(N-22F,22F,22F,21F,21F, 20F,20F,19F, 19F, 18F, 18F, 17F,17F, 16F, 16F, 15F, 15F-heptadecafluor-12-oxadocosanoyl)-1,4,7,10-tetraazacyclododecan [Beispiel 14 e)]", "values": [{"measurement": "R^1 (T^1-Relaxivity)", "result": "19,3 L/mmol * sec"}]}
{"substance": "1,4,7-Tris{N-3,9-bis(carboxylatomethyl)-6-[N-3-aza-2,5-dioxo-pentan-1,5-diyl]-3,6,9-triazaundecan-1-carboxylato-11-säure, Gd-Komplex, Natriumsalz}-10-[Nacetyl-(2-amino-N-ethyl-N-perfluoroctylsulfonyl)]-1,4,7,10-tetraazacyclododecan [Beispiel 18 d)]", "values": [{"measurement": "R^1 (T^1-Relaxivity)", "result": "23,0 L/mmol * sec"}]}
{"substance": "1,4,7-Tris{N-[3,9-bis{N-carboxylatomethyl)]-6-[N-{3-aza-2,5-dioxo-pentan)-1,5-diyl]-3,6,9-triazaundecan-1-carboxylato-11-säure, Gd-Komplex, Mononatriumsalz}-10-N-{undecanoyl-〈11-amino-N-[acetyl-(2-amino-N-ethyl-N-perfluoroctylsulfonyl)]) }-1,4,7,10-tetraazacyclododecan [Beispiel 25 f)]", "values": [{"measurement": "R^1 (T^1-Relaxivity)", "result": "15,1 L/mmol * sec"}]}
{"substance": "1,4,7-Tris{N-hexanoyl-2,6-bis〈*amino-N-acetyl-2-[3,9-bis(N-carboxylato-methyl)-6-yl-3,6,9-triazaundecan-1-carboxylato-11-säure, Gd-Komplex, Mononatriumsalz]〉}-10-[N-acetyl-(2-amino-N-ethyl-N-perfluoroctylsulfonyl)]-1,4,7,10-tetraazacyclododecan [Beispiel 26 d)]", "values": [{"measurement": "R^1 (T^1-Relaxivity)", "result": "13,0 L/mmol * sec"}]}
{"substance": "1,4,7-Tris{N-hexanoyl-2,6-bis〈amino-N-acetyl-2-[aminopropanoyl-(2-yl)]-[1,4,7-tris(Ncarboxylatomethyl)-1,4,7,10-tetraazacyclododecan-10-yl, Gd-Komplex]〉}-10-[N-acetyl-(2-amino-N-ethyl-N-perfluoroctylsulfonyl)]-1,4,7,10-tetraazacyclododecan [Beispiel 27]", "values": [{"measurement": "R^1 (T^1-Relaxivity)", "result": "16,1 L/mmol * sec"}]}
